Tests used:
Format in all cases: binding
[1] = system: lysozyme (Lyo); test: Intact protein MS photoaffinity labeling screen, lysozyme; details: intact protein MS after 10 min irradiation
In short: (§1)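 Each fragment was placed in its own well and incubated with the protein for 15 min to allow non-covalent binding. Samples were then analysed directly from the plate by intact protein mass spectrometry, and labeling was scored as mass additions on the protein, reported as labeling %.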

[2] = system: T1, BRD4-BD1; test: Intact MS photoaffinity labeling screen, BRD4-BD1 (302 nm, LCMS-TOF); details: for MS labeling percentage, BRD4: BRD4-BD1, 302 nm 10 min
T1 construct: screened the PhP library against the first bromodomain of BRD4 (BRD4-BD1); purchased GSK/GenScript
In short: (§2)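 Labeling detected as mass additions in deconvoluted intact-protein LCMS-TOF spectra. Protein at 1 μM in PBS was first mixed with one fragment per well on ice for 15 min, followed by 10 min UV exposure at 302 nm.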

[3] = system: T2, STAT5B-NTD; test: Intact MS labeling screen, STAT5B-NTD conjugated with photocatalyst Ir-G2-PEG3-COOH (450 nm); details: 450 nm 10 min;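 also: 0.14 µL of 100 mM DMSO fragment stock added to the conjugate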
T2 construct: His-SUMO (N, cleaved yes); made in house; host or cells: E. coli BL21 RILP
In short: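 Ir-G2-PEG3-COOH photocatalyst (10 eq) activated 30 min with EDC/NHS/BOP, then conjugated to STAT5B-NTD (7 µM) overnight at RT or 1 h at 37 °C in dark. PhP added, 1 h dark, then 450 nm irradiation 10 min at 4 °C; labeling read by intact LC-MS, positive ion mode, m/z 100–2000.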

[4] = system: myoglobin (Myo); test: Intact protein MS photoaffinity labeling screen, myoglobin; details: intact protein MS after 10 min irradiation
In short: as §1

[5] = system: carbonic anhydrase II (CA); test: Intact protein MS photoaffinity labeling screen, carbonic anhydrase; details: intact protein MS after 10 min irradiation
In short: as §1

[6] = system: T2, STAT5B-NTD; test: Intact MS photoaffinity labeling screen, STAT5B-NTD (365 nm, UHPLC-MS); details: for MS labeling percentage, STAT5B: STAT5B-NTD, 365 nm 10 min, no photocatalyst;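 as to MS labeling percentage, STAT5B: 0.17 µL of 100 mM DMSO fragment stock added to the protein sample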
In short: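 UV irradiation at 365 nm for 10 min at 4 °C. Labeling read by intact-protein UHPLC-MS, positive ion mode, m/z 100–2000.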

[7] = system: T3, KRas^G12D; test: Intact MS photoaffinity labeling screen, KRas G12D (302 nm, LCMS-TOF); details: for MS labeling percentage, KRas: KRas G12D, 302 nm 10 min
T3 construct: purchased GSK/GenScript
In short: as §2

[8] = sheet PhP, experimental hit status flag given as 0 or 1
[9] = PhP library sheet "PhP", binary flag printed as 0 or 1, key not given

Row | SMILES | MS labeling percentage, CA [5] [%] | MS labeling percentage, Lyo [1] [%] | MS labeling percentage, BRD4 [2] [%] | BRD4-BD1 (experimental hit status) [2, 8] | MS labeling percentage, STAT5B+photocat [3] [%] | MS labeling percentage, Myo [4] [%] | MS labeling percentage, STAT5B [6] [%] | STAT5B-NTD (experimental hit status) [6, 8] | MS labeling percentage, KRas [7] [%] | KRAS-G12D (experimental hit status) [7, 8] | BRD4-BD1 (experimental hit status) [2, 9] | STAT5B-NTD (experimental hit status) [6, 9] | KRAS-G12D (experimental hit status) [7, 9]
1 | CC1(CCC(=O)NC(CO)Cc2c[nH]c3ccccc23)N=N1 (stereo not shown) [PhP064, N1=NC1(C)CCC(=O)NC(CO)Cc(c[nH]2)c(c23)cccc3] | 0.5 | 0.7 | 1.1 | 0 | 1.9 | 0.3 | 2.9 | 0 | 3.1 | 0 |  |  | 
2 | C[C@@H](NC(=O)CCC1(C)N=N1)[C@@H](O)c1cccc(O)c1 [PhP070, Oc(c1)cccc1[C@H](O)[C@@H](C)NC(=O)CCC2(C)N=N2] | 0 | 1 | 0.3 | 0 | 4.2 | 0.1 | 1 | 0 | 0 | 0 |  |  | 
3 | CC1(CCC(=O)Nc2ccc3c(c2)NC(=O)CC3)N=N1 [PhP075, N1=NC1(C)CCC(=O)Nc(cc2)cc(c23)NC(=O)CC3] | 0.2 | 0 | 1.3 | 0 | 0.5 | 0.1 | 2 | 0 | 0.2 | 0 |  |  | 
4 | CC1CN(Cc2ccccc2NC(=O)CCC2(C)N=N2)CC(C)O1 (stereo not shown) [PhP078, CC1CN(CC(O1)C)Cc2ccccc2NC(=O)CCC3(C)N=N3] | 0.4 | 0 | 0.4 |  | 0.7 | 0.2 | 0 |  | 0 |  | 0 | 0 | 0
5 | CC1(CCC(=O)N[C@@H](Cc2cccc(F)c2)CN2C(=O)c3ccccc3C2=O)N=N1 [PhP079, Fc(c1)cccc1C[C@H](NC(=O)CCC2(C)N=N2)CN(C3=O)C(=O)c(c34)cccc4] | 0.5 | 0.3 |  |  | 1.2 | 0.4 | 0 |  | 0.5 |  | 0 | 0 | 0
6 | CC1(CCC(=O)NCCc2c[nH]c3ccc(OCc4ccccc4)cc23)N=N1 [PhP081, N1=NC1(C)CCC(=O)NCCc(c[nH]2)c(c23)cc(cc3)OCc4ccccc4] | 0 | 2.8 | 0.5 |  | 4 | 0.3 | 1 |  | 0.5 |  | 0 | 0 | 0
7 | CC1(CCC(=O)NC(COCc2ccccc2)C(=O)OCc2ccccc2)N=N1 (stereo not shown) [PhP086, c1ccccc1COC(=O)C(NC(=O)CCC2(C)N=N2)COCc3ccccc3] | 0.4 | 0 | 0.2 |  | 4.6 | 0.2 | 0 |  | 0.3 |  | 0 | 0 | 0

Second part, led by results:

Row | MS labeling percentage, CA [5] [%] | SMILES | MS labeling percentage, Lyo [1] [%] | MS labeling percentage, BRD4 [2] [%] | BRD4-BD1 (experimental hit status) [2, 8] | MS labeling percentage, STAT5B+photocat [3] [%] | MS labeling percentage, Myo [4] [%] | MS labeling percentage, STAT5B [6] [%] | STAT5B-NTD (experimental hit status) [6, 8] | MS labeling percentage, KRas [7] [%] | KRAS-G12D (experimental hit status) [7, 8] | BRD4-BD1 (experimental hit status) [2, 9] | STAT5B-NTD (experimental hit status) [6, 9] | KRAS-G12D (experimental hit status) [7, 9]
8 | 0.3 | CC1(CCC(=O)NCCCc2nc[nH]n2)N=N1 [PhP066, N1=NC1(C)CCC(=O)NCCCc2nc[nH]n2] | 0 | 0.3 | 0 | 0 | 0.3 | 0 | 0 | 0.2 | 0 |  |  | 
9 | 0.2 | Cc1cc2ncn(CC(O)CNC(=O)CCC3(C)N=N3)c2cc1C (stereo not shown) [PhP067, Cc(c1)c(C)cc(c12)n(cn2)CC(O)CNC(=O)CCC3(C)N=N3] | 0 | 0.8 | 0 | 0.3 | 0.5 | 2 | 0 | 0.6 | 0 |  |  | 
10 | 0.3 | COc1nc(C)cc(C)c1CNC(=O)CCC1(C)N=N1 [PhP068, COc1nc(C)cc(C)c1CNC(=O)CCC2(C)N=N2] | 0 | 1 | 0 | 4.4 | 0.4 | 1 | 0 | 0 | 0 |  |  | 
11 | 0.2 | CC1(CCC(=O)NCCCc2nc3ccccc3[nH]2)N=N1 [PhP069, N1=NC1(C)CCC(=O)NCCCc(n2)[nH]c(c23)cccc3] | 0 | 1.5 | 0 | 0.8 | 0.2 | 1 | 0 | 0.5 | 0 |  |  | 
12 | 0 | Cc1nc2ccccc2n1CCNC(=O)CCC1(C)N=N1 [PhP073, c1cccc(c12)n(c(n2)C)CCNC(=O)CCC3(C)N=N3] | 0 | 0.3 | 0 | 1.6 | 0.2 | 1 | 0 | 0.1 | 0 |  |  | 
13 | 0.7 | COc1cc(C)nc(NC(=O)CCC2(C)N=N2)n1 [PhP074, COc1cc(C)nc(n1)NC(=O)CCC2(C)N=N2] | 0 | 0.4 | 0 | 1.8 | 0.4 | 1 | 0 | 0.4 | 0 |  |  | 
14 | 0.1 | CCc1cc(NC(=O)CCC2(C)N=N2)nc(C)n1 [PhP076, CCc1cc(nc(n1)C)NC(=O)CCC2(C)N=N2] | 0 | 0.9 | 0 | 3.2 | 0.2 | 2 | 0 | 0.2 | 0 |  |  | 
15 | 0.4 | CC1(CCC(=O)NCc2nnc3n2CCC3)N=N1 [PhP083, N1=NC1(C)CCC(=O)NCc(nn2)n(c23)CCC3] | 0 | 0.3 |  | 0.7 | 0.1 | 1 |  | 0.2 |  | 0 | 0 | 0
16 | 1.6 | CC1(CCC(=O)NCCNC(=O)c2ccncc2)N=N1 [PhP084, N1=NC1(C)CCC(=O)NCCNC(=O)c2ccncc2] | 0 | 0.9 |  | 0.7 | 0.4 | 0 |  | 0.3 |  | 0 | 0 | 0
17 | 0.4 | CC1(CCC(=O)NC2CCc3[nH]cnc3C2)N=N1 (stereo not shown) [PhP085, N1=NC1(C)CCC(=O)NC(CC2)Cc(c23)nc[nH]3] | 0 | 0.3 |  | 1.2 | 0.1 | 1 |  | 0.3 |  | 0 | 0 | 0

From article PMC11292009, “Mapping protein binding sites by photoreactive fragment pharmacophores” (Communications Chemistry, 2024)
